Source: patent US10543196B2, “Oral dosage forms of bendamustine” (priority 2008, dated 2020)
Counter-ions that a name gives are not always drawn.

Key:
[1] = Stability of an aqueous solution of bendamustine versus pH; type: physicochemical; settings: pH>5
[2] = patients, oral doses of 250-350 mg, cited from earlier work
[3] = Solubility of bendamustine hydrochloride; type: physicochemical
Source text: Therefore it is not surprising that the oral bendamustine compositions, as investigated by Preiss et al. and Weber gave rise to relatively poor bioavailability results and a large inter-individual variability.

[4] = B6D2F1-mice; cited from earlier work

SMILES | Hydrolytic decomposition in aqueous solution [1] | Oral bioavailability, range ([2]; capsules) | Solubility in a range of organic solvents [3] | Solubility in ethanol and methanol [3] | Solubility in water ([3]; pH of 2.0) | Time at which maximal plasma levels were detectable after oral administration ([2]; capsules of 25 mg) [h] | Bioavailability (absorption from the gastro-intestinal tract) [4]
Cn1c(CCCC(=O)O)nc2cc(N(CCCl)CCCl)ccc21 [bendamustine, 4-[5-[bis(2-chloroethyl)amino]-1-methylbenzimidazo-2-yl]butanoic acid] | the decomposition proceeds rapidly | 25-94% | – | – | – | – | –
Cn1c(CCCC(=O)O)nc2cc(N(CCCl)CCCl)ccc21 [bendamustine hydrochloride] | – | – | slightly or very slightly soluble | good solubility | sparingly soluble | ≤ 1 | about 40%
